Assay results: patent US6210917A, “Method for suppressing multiple drug resistance in cancer cells” (priority 1997, dated 2001)

Experiments:
MV522Q6 cells = test: growth of MDR cells by reduction of a tetrazolium dye (FIG. 1A); assay type: cell-based, human; conditions: 10 μM; for sensitivity of the resistant cell line to chemotherapy: MV522Q6 compared with MV522, three days
Description: MV522 is a human cancer cell line; MV522Q6 is a variant of the cell line with MDR. Each cell line was grown in a monolayer as and contacted with 10 μM of a chemotherapeutic agent and/or L-alanosine (as shown in FIGS. 1A and 1B). Growth, or the lack thereof, was measured in each population of cells by reduction of a tetrazolium dye after three days in culture.
FIG. 1A is a graph depicting the effect of L-alanosine and different chemotherapeutic agents (vinblastine and taxol) on a MDR cancer cell line (MV522Q6). FIG. 1B is a graph depicting the effect of the same drugs on the cell line before acquisition of resistance (MV522). […] However, the adenine synthesis inhibitor L-alanosine is nearly 10 times as potent in the resistant cell line than the other agents tested.

MES-SA/Dx5 cells [1] = conditions: cited from earlier work
MES-SA/Dx5 cells [2] = test: growth of MES-SA/Dx5 drug resistant cells with L-alanosine and other agents; assay type: cell-based; conditions: data not shown
[3] = tested on: MTAse deficient H292 cells; test: proliferation in presence of L-alanosine with MTA or adenine added (FIG. 2); assay type: cell-based; conditions: L-alanosine 40 μM
A549 NSCLC cells = test: tumor xenograft in nude mice, MTAP-deficient A549 cells (FIG. 5); assay type: in vivo, Balb/c athymic nude mice; conditions: i.p. every 12 hours; 15 mg/kg per injection 7 days then 22.5 mg/kg 5 days
Description: (§1) 10^7 A549 or A427 NSCLC cells were injected subcutaneously into 6-week old Balb/c athymic nude mice. When tumors had reached approximately 0.4 cm diameter, treatment was begun with L-alanosine or saline by intraperitoneal injection every 12 hours. Mice received 15 mg/kg per injection for 7 days then 22.5 mg/kg for 5 days. Tumor size was measured as the product of perpendicular diameters. The results for treated (n=6 [sample size] for each cell type) vs. control (n=4 [sample size] for each cell type) mice are shown in FIG. 5.

A427 NSCLC cells = test: tumor xenograft in nude mice, MTAP-positive A427 cells (FIG. 5); assay type: in vivo, Balb/c athymic nude mice; conditions: i.p. every 12 hours; 15 mg/kg per injection 7 days then 22.5 mg/kg 5 days
Description: as §1

[4] = toxicity / body weight of nude mice in xenograft study; assay type: in vivo, Balb/c athymic nude mice
Description: 10^7 A549 or A427 NSCLC cells were injected subcutaneously into 6-week old Balb/c athymic nude mice. When tumors had reached approximately 0.4 cm diameter, treatment was begun with L-alanosine or saline by intraperitoneal injection every 12 hours.
Mice received 15 mg/kg per injection for 7 days then 22.5 mg/kg for 5 days. Tumor size was measured as the product of perpendicular diameters. The results for treated (n=6 [sample size] for each cell type) vs. control (n=4 [sample size] for each cell type) mice are shown in FIG. 5.

human cancers = conditions: cited from earlier work
melanoma = conditions: Phase II, melanoma patients; cited from earlier work
breast cancer = breast cancer patients; cited from earlier work
MTAse competent cancers = conditions: cited from earlier work
[5] = humans, intravenous, cited from earlier work
[6] = cited from earlier work
[7] = tested on: MTAse competent A427 cells; test: growth restoration by MTAse substrates after L-alanosine (FIG. 3); assay type: cell-based
[8] = tested on: MTAse competent MOLT-4 cells; test: as above; assay type: cell-based
[9] = tested on: MTAse deficient A549 cells; test: as above; assay type: cell-based
[10] = tested on: MTAse deficient CEM cells; test: as above; assay type: cell-based

CC(=O)O[C@H]1C(=O)[C@@]2(C)[C@H]([C@H](OC(=O)c3ccccc3)[C@]3(O)C[C@H](OC(=O)[C@H](O)[C@@H](NC(=O)c4ccccc4)c4ccccc4)C(C)=C1C3(C)C)[C@]1(OC(C)=O)CO[C@@H]1C[C@@H]2O [taxol]
sensitivity of the resistant cell line to chemotherapy (MV522Q6 cells): greatly reduced
resistance level to chemotherapeutic agents (MES-SA/Dx5 cells [1]): highly resistant

CC[C@]1(O)C[C@@H]2CN(CCc3c([nH]c4ccccc34)[C@@](C(=O)OC)(c3cc4c(cc3OC)N(C)[C@H]3[C@@](O)(C(=O)OC)[C@H](OC(C)=O)[C@]5(CC)C=CCN6CC[C@]43[C@@H]65)C2)C1 [vinblastine]
sensitivity of the resistant cell line to chemotherapy (MV522Q6 cells): greatly reduced
resistance level to chemotherapeutic agents (MES-SA/Dx5 cells [1]): highly resistant

N[C@@H](CN(O)N=O)C(=O)O [L-alanosine]
potency of L-alanosine in the resistant cell line relative to the other agents tested (MV522Q6 cells; MV522Q6 (MDR), three days in culture): ~10 times
potency in the resistant cell line vs the non-resistant cell line (MV522Q6 cells; MV522Q6 vs MV522): as, if not more, potent in the resistant cell line than in the non-resistant cell line
effect on drug resistant cell line vs other agents tested (MES-SA/Dx5 cells [2]): significantly more affected by L-alanosine than by the other agents tested
inability to proliferate in the presence of L-alanosine despite MTA ([3]; H292 compared with Calu-6, with MTA): selective inability of MTAse deficient NSCLC cells to proliferate
size of well-established MTAP-deficient tumors (A549 NSCLC cells): decrease in the size
effect on growth of MTAP-positive cells (A427 NSCLC cells): no effect on the growth
toxicity ([4]; 15 and 22.5 mg/kg per injection, i.p. every 12 hours): No toxicity was evident
body weight ([4]; throughout testing): stable weights
overall response rate (human cancers; Phase II studies, Creagan et al.): 4%
efficacy for treatment of human cancers (human cancers; Tyagi and Cooney 1984): little encouragement
therapeutic response (melanoma): little therapeutic response observed
objective responses (breast cancer): no objective responses observed
success in clinical trials (MTAse competent cancers): no appreciable success
plasma clearance [5]: biphasic
t1/2α ([5]; plasma, biphasic, approximate): ~14 min
t1/2β ([5]; plasma, biphasic, approximate): ~99 min
dose limiting toxicity ([6]; continuous infusion about 125 mg/m^2 for 5 days, adults, acute non-lymphoblastic leukemia, phase II): mucositis
toxicity after multiple bolus dosing ([6]; multiple bolus dosing): Stomatitis and esophagitis
dose-limiting toxicity ([6]; prior clinical trials): renal toxicity, stomatitis, esophagitis
reactions with lesser frequency ([6]; prior clinical trials): myelosuppression, headache, nausea and hypo- or hypertension
dose at which renal toxicity occurred ([6]; single bolus dosing): above 4 g/m^2 body weight
dose at which two pediatric patients suffered liver failure ([6]; two pediatric patients, separate doses): about 350 mg/m^2 body weight per day

C[C@H]1O[C@@H](n2cnc3c(N)ncnc32)[C@H](O)[C@@H]1O [5'-deoxyadenosine]
growth restoration [7]: growth restoration
growth restoration [8]: growth restoration
growth restoration [9]: remained growth inhibited
growth restoration [10]: remained growth inhibited

Nc1ncnc2nc[nH]c12 [adenine]
proliferation of control cultures containing adenine ([3]; control cultures with adenine (Calu-6 / H292)): proliferate despite L-alanosine
